Read-outs that look alike come from different tables or passages of the source.
Assays:
[1] = Metabolic stability in rat liver microsomes; format: in vitro ADME; settings: for Metabolic stability in rat microsomes, Exp. 1 / Metabolic stability in rat microsomes, Exp. 2: intrinsic clearance, 1 µM compound; for microsomal CLint at 1 µM: rat liver microsomes, read-out: intrinsic clearance Clint
Protocol: The assay was run in a 96-deep well format and solutions were prepared containing microsomes in phosphate buffer. The microsomes employed were from humans, rats, and mice. The reaction was initiated by addition of NADPH after preincubation at 37 °C with test compounds. The reaction was stopped by the addition of acetonitrile (ACN) at six time points (0, 5, 10, 15, 25, and 45 min), the samples were centrifuged, and the supernatant was diluted to determine the loss of compound by LC–MS/MS. Two incubations per compound per species. For further details regarding working concentrations, volumes, and final concentrations at incubation, refer to the supplementary section (Table S6). […]
Metabolic Metabolic Metabolic stability in stability in stability in Plasma-protein human mouse rat In vitro plasma stability binding by RED
Assay/compo microsome microsome microsome (% compound remaining after (% unbound und s s s 23 h) compound, (µL/min/m (µL/min/m (µL/min/m average n=2) g protein) g protein) g protein)
Exp. Exp. Exp. Exp. Exp. Exp. Hum Mou Ra Do Mini Hum Mou Ra […]
Conc. of W orki ng Vol ume i n Fi nal conc. At sol uti on assay incubation
577 m g / m L520 µ L0. […]

[2] = LogD pH 7.4 shake flask; format: physicochemical; settings: 1-octanol / phosphate buffer pH 7.4
Protocol: Distribution coefficients between 1-octanol and phosphate buffer pH 7.4 were determined with a shake flask method with the LC–UV detection of the compound concentration in both phases. The reported range was from −1 to +4.

[3] = Plasma-protein binding by RED, human; format: in vitro ADME; settings: pH 7.2, read-out: Plasma-protein binding by RED (% unbound compound, average n=2)
Protocol: The assay was run in a deep well plate containing RED inserts with semipermeable dialysis membranes. The reaction was started by adding the compounds to a blank plasma in a 5 μM concentration. Opposite to the blank plasma was a compartment containing isotonic sodium–phosphate buffer (pH 7.2) separated from the plasma by the membrane. The plate was equilibrated in a water bath at 37 °C for 4 h. Samples from both the plasma and the buffer side were matrix compensated before protein precipitation. The samples were centrifuged, and the supernatants were diluted and analyzed by LC–MS/MS to determine the % unbound compound. Two incubations per compound per species.

[4] = Plasma stability, mini pig; format: in vitro ADME; settings: 1 μM, 37 °C
Protocol: The reaction was started by the addition of the compound to blank plasma in LC vials after preincubation at 37 °C. The initial compound concentration was 1 μM. The reaction was stopped by the addition of ACN at seven time points (0, 0.5, 1, 2, 4, 6, and 23 h). Time point 0 h was about 15–20 s after spiking the plasma with the compound. The samples were centrifuged and the supernatant diluted and analyzed by LC–MS/MS to determine the % of compound remaining relative to the initial concentration of compound.

[5] = Solubility screen; format: physicochemical; settings: aqueous buffer, kinetic from dmso stock; 100 mM phosphate buffer, pH 7.4, 1% DMSO; read-out: solubility (solubility screening)
Protocol: The compounds were dissolved in 10 mM DMSO solutions. The solubility was assessed by dilution in 0.1 M phosphate buffer pH 7.4 to a concentration of 100 μM.

[6] = biological target: SaSiaT (Staphylococcus aureus, UniProt A0A0H2XJ46); experiment: Isothermal titration calorimetry, SaSiaT; format: binding
Protocol: The binding thermodynamic analysis performed via isothermal titration calorimetry (ITC) provides insights into dissociation constants (Kd) and the binding driving forces of compounds 3a, 3e, and 3f with PmSiaT and SaSiaT.
Isothermal titration calorimetric experiments were performed on an ITC200 instrument (MicroCal, Northampton, USA) at 25 °C using standard instrument settings (reference power of 6 μcal s^–1, stirring speed of 750 rpm, feedback mode high, and filter period of 2 s). Protein solutions were dialyzed against ITC buffer (50 mM Tris–HCl, 150 mM NaCl, with 0.0174% (w/v) DDM, pH 8.0 at 5 °C) prior to the experiments, and all the samples were prepared using the dialysate buffer to minimize dilution effects. Protein concentrations were determined spectrophotometrically with the specific absorbance at 280 nm employing an extinction coefficient of 76,445 mol^–1 cm^–1 for PmSiaT and 75,750 M^–1 cm^–1 for SaSiaT. […] In a typical experiment, a 0.3–1.0 mM inhibitor solution was titrated to a solution containing 30–50 μM of PmSiaT or 13–20 μM of SaSiaT to ensure >90% saturation. Baseline correction, peak integration, and nonlinear regression analysis of experimental data were performed using the NITPIC (version 1.2.2.)[41] and SEDPHAT (version 12.1b)[42] software packages. The stoichiometry parameter was manually constrained to a value of 1. Experiments were performed in triplicate and the 68% confidence intervals from global fitting of three experiments were calculated as an estimate of the experimental error. All the titration curves can be found in Figures S10–S15.

[7] = ITC, 25 °C, read-out: SaSiaT Kd

Sequence of SaSiaT (A0A0H2XJ46 entry or part of it): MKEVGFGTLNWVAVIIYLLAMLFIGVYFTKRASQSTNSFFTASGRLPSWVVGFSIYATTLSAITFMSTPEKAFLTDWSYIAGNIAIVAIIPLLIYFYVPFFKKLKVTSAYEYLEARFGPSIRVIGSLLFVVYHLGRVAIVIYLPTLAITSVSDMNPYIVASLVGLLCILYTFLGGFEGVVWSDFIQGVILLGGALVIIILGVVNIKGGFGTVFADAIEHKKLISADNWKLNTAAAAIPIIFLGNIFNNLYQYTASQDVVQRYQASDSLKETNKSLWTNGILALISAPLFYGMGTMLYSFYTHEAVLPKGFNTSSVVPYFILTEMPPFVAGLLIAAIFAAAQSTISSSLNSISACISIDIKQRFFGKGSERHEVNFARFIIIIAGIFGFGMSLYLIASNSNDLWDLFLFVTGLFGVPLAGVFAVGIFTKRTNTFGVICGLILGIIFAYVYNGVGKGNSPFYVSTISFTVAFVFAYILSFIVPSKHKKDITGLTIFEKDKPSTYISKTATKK

Compound | Metabolic stability in rat microsomes, Exp. 1 [1] | Metabolic stability in rat microsomes, Exp. 2 [1] | microsomal CLint at 1 µM [1] | logD [2] | fraction unbound at 4 h, 5 μM [3] | In vitro plasma stability (% compound remaining after 23 h) [4] | solubility [5] | SaSiaT -TΔS° ([6]; ITC) | SaSiaT ΔG° ([6]; ITC) | SaSiaT ΔH° ([6]; ITC) | Kd [6, 7] | affinity increase for SaSiaT ([6]; compared to Neu5Ac) | Kd [6]
CC(=O)NC1C(OCc2cc(F)cc(F)c2)CC(O)(C(=O)O)OC1C(O)C(O)CO (centres unmarked) [Compound 3e] | < 10 µL/min/mg protein | < 10 µL/min/mg protein | < 10 µL/min/mg | < -0.5 | 0.74 | 100% | > 95 µM | -16.5 kcal/mol | -7.36 kcal/mol | 9.15 kcal/mol | 4.1 ± 2.1 µM | 31 fold | 
CC(=O)NC1C(OCc2ccccc2)CC(O)(C(=O)O)OC1C(O)C(O)CO (centres unmarked) [Compound 3a] | < 10 µL/min/mg protein | < 10 µL/min/mg protein | < 10 µL/min/mg | < -0.5 | 0.85 | 100% | > 95 µM | -16 kcal/mol | -6.91 kcal/mol | 9.08 kcal/mol | 8.8 ± 2.7 µM |  | 
CC(=O)NC1C(OCc2cc(Br)cc(Br)c2)CC(O)(C(=O)O)OC1C(O)C(O)CO (centres unmarked) [Compound 3f] | < 10 µL/min/mg protein | < 10 µL/min/mg protein | < 10 µL/min/mg | < 0 | 0.27 | 39% | > 95 µM | -13.1 kcal/mol | -6.55 kcal/mol | 6.57 kcal/mol | 15.7 ± 7.3 µM |  | 
CC(=O)N[C@H]1[C@H]([C@H](O)[C@H](O)CO)OC(O)(C(=O)O)C[C@@H]1O (some centres unmarked) [Neu5Ac, 5-N-acetyl neuraminic acid, reference compound] |  |  |  |  |  |  |  | -14.7 kcal/mol | -5.31 kcal/mol | 9.37 kcal/mol |  |  | 130 ± 35 µM

From paper PMC9295122, “Sialic Acid Derivatives Inhibit SiaT Transporters and Delay Bacterial Growth” (ACS Chemical Biology, 2022)
